Test results from ChEMBL document CHEMBL1201862, “PubChem BioAssay data set” (2004).
Calls of active or inactive are those of the source.

How the values were obtained:
[1] = Luminescence Cell-Based Dose Response to Identify Activators of Luciferase Translation or Activity in H4-C Neuroglioblastoma Cells. [Related pubchem assays: 1829 (Project Summary), 1814 (Primary HTS)]; type: functional
[2] = Luminescence Cell-Based Dose Response HTS to Identify Activators of Luciferase Translation or Activity in H4 […] Cells. [Related pubchem assays: 1829 (Project Summary), 1814 (Primary HTS)]; type: functional
H4 = experiment: Luminescence Cell-Based Dose Response HTS to Identify Activators of 5'UTR Stem-Loop Driven Prion Protein mRNA Translation in H4 Neuroglioblastoma Cells. [Related pubchem assays: 1829 (Project Summary), 1814 (Primary HTS)]; type: functional; details: Homo sapiens
[3] = Luminescence Cell-Based Dose Confirmation to Identify Activators of 5'UTR Stem-Loop Driven Alpha-Synuclein mRNA Translation in H4 Neuroglioblastoma Cells. [Related pubchem assays: 1829 (Project Summary), 1814 (Primary HTS)]; type: functional
[4] = Luminescence Cell-Based Dose Confirmation HTS to Identify Activators of 5'UTR Stem-Loop Driven Alpha-Synuclein mRNA Translation in H4 Neuroglioblastoma Cells. [Related pubchem assays: 1829 (Project Summary), 1814 (Primary HTS)]; type: functional
[5] = Luminescence Cell-Based Dose Response to Identify Activators of 5'UTR Stem-Loop Driven Prion Protein mRNA Translation in H4-C Neuroglioblastoma Cells. [Related pubchem assays: 1829 (Project Summary), 1814 (Primary HTS)]; type: functional
[6] = target: Heat shock protein HSP 90-alpha (Homo sapiens, UniProt P07900); experiment: Luminescence-based dose response biochemical high throughput screening assay for inhibitors of the Heat Shock Protein 90 (HSP90). [Related pubchem assays: 1831 (Summary AID.), 1846 (Confirmation screen.), 1789 (Primary screen.)]
[7] = inhibitors of PGC1a acetylation in cells, dose response, cell-based, cherry-picked samples (AID 720514); type: functional;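 note: potency may reflect raised or lowered acetylation signal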
Paired box protein Pax-8 = Paired box protein Pax-8 (Homo sapiens, UniProt Q06710); experiment: inhibitors of PAX8-driven TPO luciferase reporter, dose response, RMG-I cells, cherry-pick (AID 687027); type: functional, cell-based;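 note: luciferase reporter driven by Pax8 target thyroperoxidase promoter measured by SteadyGlo luminescence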
Paired box protein Pax-8, sequence (Q06710 whole entry): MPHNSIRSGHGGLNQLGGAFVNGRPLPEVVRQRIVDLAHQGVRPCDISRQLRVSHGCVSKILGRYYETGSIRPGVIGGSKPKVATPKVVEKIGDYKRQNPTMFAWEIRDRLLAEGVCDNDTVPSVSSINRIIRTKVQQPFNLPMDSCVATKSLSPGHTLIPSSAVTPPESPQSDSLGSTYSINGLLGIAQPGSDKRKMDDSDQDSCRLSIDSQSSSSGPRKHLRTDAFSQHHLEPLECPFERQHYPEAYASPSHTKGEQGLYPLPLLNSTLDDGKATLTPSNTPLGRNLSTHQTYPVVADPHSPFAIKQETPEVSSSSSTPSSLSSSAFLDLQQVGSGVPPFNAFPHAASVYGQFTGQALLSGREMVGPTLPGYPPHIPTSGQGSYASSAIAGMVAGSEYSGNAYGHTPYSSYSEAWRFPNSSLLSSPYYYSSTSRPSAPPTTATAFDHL

[8] = NIH:OVCAR-3 ovarian cancer cell cytotoxicity, dose response, PAX8 inhibitor project, plate reader, dry powder samples (AID 743044); type: functional, cell-based
[9] = IGROV1 ovarian cancer cell cytotoxicity, dose response, PAX8 inhibitor project, plate reader, dry powder samples (AID 743043); type: functional, cell-based; details: IGROV-1
[10] = cytotoxicity in OVCAR8 ovarian cancer cells, dose response, PAX8 project, cell-based, plate reader, dry powder samples (AID 743197); type: functional; details: OVCAR-8
[11] = IOSE-T80 ovarian epithelial cell cytotoxicity, dose response, cytotoxicity control for PAX8 inhibitor project, plate reader, dry powder samples (AID 743045); type: functional, cell-based
[12] = Vero cell cytotoxicity, dose response, cytotoxicity control for Vif-APOBEC3G degradation inhibitor project, Vero cells (AID 1117358); type: functional; details: Human immunodeficiency virus 1, Vero
[13] = Luminescence-based dose response cell-based high throughput screening assay for cytotoxic compounds using the IEC-6 intestinal epithelial cell line. [Related pubchem assays: 1858 (Summary AID.), 1825 (Counterscreen.), 1907 (Confirmation screen.)]; type: functional
[14] = cytotoxicity in HEK-293T cells, dose response, cytotoxicity control for BCR NF-kB inhibitor project, luminescence, B-cell screen hits (AID 489021); type: functional, cell-based;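 note: HEK-293T cells carrying an NF-kB luciferase reporter; cells exposed to compound for about 14 hours before viability readout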
[15] = Luminescent dose response cell-based high throughput screening assay for inhibitors of the Janus kinase 2 mutant JAK2V617F. [Related pubchem assays: 1446 (Primary screen.), 1521 (Confirmation assay.), 1486 (Counter screen.)]; type: functional
Large T antigen = Large T antigen (Simian virus 40, UniProt P03070); type: functional, Betapolyomavirus macacae;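 note: Confirmatory-stage PubChem screen for compounds that inhibit SV40 T antigen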
Large T antigen, sequence (P03070 whole entry): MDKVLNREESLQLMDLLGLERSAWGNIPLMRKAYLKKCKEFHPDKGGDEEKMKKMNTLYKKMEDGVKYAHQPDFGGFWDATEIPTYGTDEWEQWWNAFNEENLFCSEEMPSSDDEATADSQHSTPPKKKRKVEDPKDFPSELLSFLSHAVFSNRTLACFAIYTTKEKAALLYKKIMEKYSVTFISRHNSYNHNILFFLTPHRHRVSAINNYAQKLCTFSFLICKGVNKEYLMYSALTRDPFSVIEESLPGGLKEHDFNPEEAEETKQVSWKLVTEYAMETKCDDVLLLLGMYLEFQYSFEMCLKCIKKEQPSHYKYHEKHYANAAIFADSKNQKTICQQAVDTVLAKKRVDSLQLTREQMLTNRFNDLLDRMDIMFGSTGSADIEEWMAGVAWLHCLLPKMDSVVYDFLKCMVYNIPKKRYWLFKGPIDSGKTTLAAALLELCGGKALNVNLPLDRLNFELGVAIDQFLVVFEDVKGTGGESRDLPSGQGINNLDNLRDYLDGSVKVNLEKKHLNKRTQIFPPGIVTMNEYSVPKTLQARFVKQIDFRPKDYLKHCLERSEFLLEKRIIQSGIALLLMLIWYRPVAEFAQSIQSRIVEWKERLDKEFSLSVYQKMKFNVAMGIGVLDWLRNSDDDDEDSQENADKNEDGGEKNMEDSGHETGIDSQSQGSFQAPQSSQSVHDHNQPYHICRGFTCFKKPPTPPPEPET

Protein Tat = target: T1, Protein Tat (Human immunodeficiency virus type 1 group M subtype B (isolate HXB2)(HIV-1), UniProt P04608); type: functional;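 note: tat binding to TAR RNA read out by fluorescence polarization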
T1 sequence (P04608 whole entry): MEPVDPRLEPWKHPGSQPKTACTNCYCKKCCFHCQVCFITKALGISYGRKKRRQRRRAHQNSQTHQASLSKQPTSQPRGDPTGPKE

Estrogen receptor beta = Estrogen receptor beta (Homo sapiens, UniProt Q92731);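 note: recombinant ER-beta bound to coactivator SRC1 peptide in presence of estradiol agonist; inhibitors block coactivator peptide binding and lower the FRET signal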
Estrogen receptor beta, sequence (Q92731 whole entry): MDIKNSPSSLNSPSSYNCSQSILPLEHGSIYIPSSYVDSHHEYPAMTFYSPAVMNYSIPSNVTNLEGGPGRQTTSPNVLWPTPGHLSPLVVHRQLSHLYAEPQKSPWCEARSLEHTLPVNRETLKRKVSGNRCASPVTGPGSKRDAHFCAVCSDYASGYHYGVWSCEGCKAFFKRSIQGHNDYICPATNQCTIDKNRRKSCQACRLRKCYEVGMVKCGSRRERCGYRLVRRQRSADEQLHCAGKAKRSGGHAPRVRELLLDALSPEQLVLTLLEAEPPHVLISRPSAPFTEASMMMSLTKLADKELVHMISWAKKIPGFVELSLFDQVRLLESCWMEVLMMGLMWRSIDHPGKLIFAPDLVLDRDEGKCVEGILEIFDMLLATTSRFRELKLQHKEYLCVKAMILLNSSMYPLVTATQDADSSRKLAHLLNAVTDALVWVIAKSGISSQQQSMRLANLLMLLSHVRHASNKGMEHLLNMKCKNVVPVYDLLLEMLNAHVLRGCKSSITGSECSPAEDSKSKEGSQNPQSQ

Vero = Vero cell cytotoxicity, cytotoxicity control for flavivirus capping enzyme inhibitors (AID 588742); type: functional; details: Chlorocebus sabaeus
[16] = target: T2, Tyrosyl-DNA phosphodiesterase 2 (Homo sapiens, UniProt O95551); experiment: human TDP2 enzyme inhibitors, dose response, biochemical, epi absorbance, IC50 (AID 743297)
T2 sequence (O95551 whole entry): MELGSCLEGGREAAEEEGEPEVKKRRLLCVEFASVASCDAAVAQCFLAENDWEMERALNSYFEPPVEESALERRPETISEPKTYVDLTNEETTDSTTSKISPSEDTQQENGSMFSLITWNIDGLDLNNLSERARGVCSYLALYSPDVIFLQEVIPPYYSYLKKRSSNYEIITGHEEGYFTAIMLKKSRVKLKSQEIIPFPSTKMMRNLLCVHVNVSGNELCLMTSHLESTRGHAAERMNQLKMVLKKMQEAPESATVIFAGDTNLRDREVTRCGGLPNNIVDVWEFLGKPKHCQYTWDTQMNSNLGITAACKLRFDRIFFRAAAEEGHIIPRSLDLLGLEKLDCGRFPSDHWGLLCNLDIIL

Hexokinase HKDC1 = target: T3, Hexokinase HKDC1 (Homo sapiens, UniProt Q2TB90); experiment: HKDC1 hexokinase inhibitors, dose response, biochemical, W721R variant (AID 504729); type: functional
T3 sequence (Q2TB90 whole entry): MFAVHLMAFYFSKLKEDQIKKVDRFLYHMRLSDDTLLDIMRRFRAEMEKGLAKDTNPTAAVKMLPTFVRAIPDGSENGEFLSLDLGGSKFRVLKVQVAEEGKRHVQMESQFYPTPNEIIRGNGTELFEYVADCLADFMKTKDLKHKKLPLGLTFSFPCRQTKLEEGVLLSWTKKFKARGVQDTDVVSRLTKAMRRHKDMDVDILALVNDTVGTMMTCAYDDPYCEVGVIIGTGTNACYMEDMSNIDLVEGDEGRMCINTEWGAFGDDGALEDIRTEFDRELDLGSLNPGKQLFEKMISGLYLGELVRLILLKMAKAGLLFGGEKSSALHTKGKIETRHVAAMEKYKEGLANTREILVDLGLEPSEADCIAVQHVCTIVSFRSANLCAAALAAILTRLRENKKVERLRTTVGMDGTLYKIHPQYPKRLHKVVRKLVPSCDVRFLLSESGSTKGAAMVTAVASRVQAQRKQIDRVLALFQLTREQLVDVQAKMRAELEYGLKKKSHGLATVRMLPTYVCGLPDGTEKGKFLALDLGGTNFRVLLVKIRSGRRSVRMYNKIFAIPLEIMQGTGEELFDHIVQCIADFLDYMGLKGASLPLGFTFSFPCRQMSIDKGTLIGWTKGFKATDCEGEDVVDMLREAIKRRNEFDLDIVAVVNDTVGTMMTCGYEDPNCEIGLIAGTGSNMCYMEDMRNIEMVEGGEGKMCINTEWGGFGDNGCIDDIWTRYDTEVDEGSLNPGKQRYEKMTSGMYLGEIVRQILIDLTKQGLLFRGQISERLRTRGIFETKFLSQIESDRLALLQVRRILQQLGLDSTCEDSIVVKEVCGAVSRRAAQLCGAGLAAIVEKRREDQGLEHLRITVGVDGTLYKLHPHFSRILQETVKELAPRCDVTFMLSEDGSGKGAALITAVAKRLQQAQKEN

Genome polyprotein = Genome polyprotein (dengue virus type 2, UniProt P29990); experiment: Dengue-2 NS5 methyltransferase inhibitors, primary screen, biochemical, confirmation dose response (AID 588689); type: functional
Genome polyprotein, sequence (P29990 2492-3391 limits assumed): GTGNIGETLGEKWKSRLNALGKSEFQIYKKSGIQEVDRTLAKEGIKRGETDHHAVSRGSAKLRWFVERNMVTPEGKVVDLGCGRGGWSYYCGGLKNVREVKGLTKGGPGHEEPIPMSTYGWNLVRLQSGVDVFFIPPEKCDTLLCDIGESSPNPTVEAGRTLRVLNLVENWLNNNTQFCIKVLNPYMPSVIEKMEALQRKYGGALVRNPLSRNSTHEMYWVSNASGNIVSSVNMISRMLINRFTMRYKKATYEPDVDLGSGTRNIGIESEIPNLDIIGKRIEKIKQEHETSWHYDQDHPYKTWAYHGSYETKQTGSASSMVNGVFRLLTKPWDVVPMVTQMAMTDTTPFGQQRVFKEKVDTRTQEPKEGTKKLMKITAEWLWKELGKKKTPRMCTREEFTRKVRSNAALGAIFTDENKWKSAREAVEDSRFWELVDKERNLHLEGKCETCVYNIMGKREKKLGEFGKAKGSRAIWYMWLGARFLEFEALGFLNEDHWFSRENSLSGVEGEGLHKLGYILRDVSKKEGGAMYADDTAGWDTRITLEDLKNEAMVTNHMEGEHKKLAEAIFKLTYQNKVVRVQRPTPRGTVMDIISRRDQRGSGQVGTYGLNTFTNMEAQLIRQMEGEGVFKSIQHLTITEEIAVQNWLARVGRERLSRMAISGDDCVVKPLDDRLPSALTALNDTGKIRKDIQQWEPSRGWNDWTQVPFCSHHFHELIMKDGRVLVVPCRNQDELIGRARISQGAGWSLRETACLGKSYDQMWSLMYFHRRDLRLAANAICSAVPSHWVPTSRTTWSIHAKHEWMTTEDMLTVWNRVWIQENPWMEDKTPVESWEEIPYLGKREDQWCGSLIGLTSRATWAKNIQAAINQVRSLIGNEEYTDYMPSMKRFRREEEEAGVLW

CC(C)(C)c1ccc(C(=O)CSc2nc[nH]n2)cc1
EC50 [1]: 1.09 µM (active)
EC50 [2]: 88.1 µM (active)
EC50 (H4): 0.127 µM (active)
EC50 [3]: 0.58 µM (active)
EC50 [4]: 3.34 µM (active)
EC50 [5]: 1.13 µM (active)

COC(=O)c1ccccc1OCCCOc1ccc(C)cc1OC
IC50 [6]: 0.00405 µM (active)

COc1ccc(C(=O)Nc2cnc3ccccn3c2=O)cc1
EC50 [1]: 0.53 µM (active)
EC50 [2]: < 0.1 µM (active)
EC50 (H4): 38.8 µM (active)
EC50 [3]: 0.36 µM (active)
EC50 [4]: 0.129 µM (active)
EC50 [5]: 0.755 µM (active)

O=C(Nc1ccc(C(F)(F)F)cc1)N1C[C@@H]2N[C@H](C1)[C@H]2c1ccc(-c2ccccc2)cc1
AC50 [7]: 5.12 µM (active)
AC50 (Paired box protein Pax-8): 8.55 µM (active)
AC50 [8]: 17.7 µM (active)
AC50 [9]: 27.2 µM (active)
AC50 [10]: 41 µM (active)
AC50 [11]: 49.8 µM (active)

Cc1nn(Cc2ccccc2)c(Cl)c1C(=O)NCCc1ccccc1
EC50 [1]: 0.367 µM (active)
EC50 [2]: < 0.1 µM (active)
EC50 [3]: 0.24 µM (active)
EC50 [4]: < 0.1 µM (active)
EC50 [5]: 1.07 µM (active)

Cc1ccc[n+](-c2[n-]c(=O)sc2C=NNC(=O)c2ccccc2O)c1
CC50 [12]: > 40 µM (active)

Cc1ccc(Nc2nc(N3CCOCC3)nc(N3CCOCC3)n2)cc1C
IC50 [13]: 1.47 µM (active)
IC50 [14]: > 80 µM (inactive)

O=S(=O)(c1cccs1)N1CCN(c2ccc(O)cc2)CC1
IC50 [15]: 2.84 µM (active)
IC50 (Large T antigen): 6.66 µM (active)

Cc1noc(C)c1COC(=O)c1cccc(S(=O)(=O)N2CCCCCC2)c1
CC50 [12]: > 40 µM (active)

COc1ccc(OC)c(C2C(C(=O)Nc3ccc(F)cc3)=C(C)Nc3nc(CCCO)nn32)c1 (stereo not given)
IC50 (Protein Tat): > 100 µM (active)

Cc1occc1C(=O)NCCCc1ccccc1
IC50 (Estrogen receptor beta): > 50 µM (not active)

C#CCSc1nsc(SCC#C)c1C#N
IC50 [15]: 1.1 µM (active)

Cc1cccc(-n2c3nc(=O)[nH]c(=O)c-3cc3cc([N+](=O)[O-])ccc32)c1
CC50 (Vero): 24.8 µM (active)
IC50 [16]: > 128 µM (inactive)
IC50 (Hexokinase HKDC1): 10.4 µM (active)
IC50 (Genome polyprotein): 32.7 µM (active)
IC50 (Large T antigen): > 100 µM (active)

CC(C)c1ccc(/C=C/C(=O)N2CCc3ccccc3C2)cc1
CC50 [12]: > 40 µM (active)

C[C@@H]1CCCCO[C@H](CN(C)C(=O)NC2CCCCC2)[C@@H](C)CN([C@@H](C)CO)C(=O)c2cc(NC(=O)NC3CCCCC3)ccc2O1
AC50 [7]: 26 µM (active)
